Results as given in ChEMBL document CHEMBL1124466, “Synthesis of 5-[1-hydroxy(or methoxy)-2-bromo(or chloro)ethyl]-2'-deoxyuridines and related halohydrin analogues with antiviral and cytotoxic activity” (1989).
≈ marks a conversion by molar mass, not a printed value.

Experiments:
Type in all cases: functional
[1] = test system: L1210; assay: In vitro cytotoxicity against L1210 cells at a dose 10 ug/mL; conditions: Mus musculus, read-out: Survival
[2] = test system: L1210; assay: In vitro cytotoxicity against L1210 cells at a dose 50 ug/mL; conditions: Mus musculus, read-out: Survival
[3] = test system: Vero; assay: In vitro antiviral activity against herpes simplex virus type-1 in vero cells; conditions: Chlorocebus sabaeus, read-out: ID50 (the source's name)
[4] = test system: L1210; assay: Effective dose against L1210 cells.; conditions: Mus musculus, read-out: ED50 (the source's name)

SMILES | viability at 10 µg/mL [1] | viability at 50 µg/mL [2] | IC50 [3] | EC50 [4]
O=c1[nH]c(=O)n([C@H]2C[C@H](O)[C@@H](CO)O2)cc1C(Br)C(O)I.O=c1[nH]c(=O)n([C@H]2C[C@H](O)[C@@H](CO)O2)cc1C(O)C(Br)I (stereo partly specified) | 79.2% | 40.1% | > 10 µg/mL | –
COC(CCl)c1cn([C@H]2C[C@H](O)[C@@H](CO)O2)c(=O)[nH]c1=O (stereo partly specified) | 75% | 38.8% | > 10 µg/mL | –
COC(CBr)c1cn([C@H]2C[C@H](O)[C@@H](CO)O2)c(=O)[nH]c1=O (stereo partly specified) | 80.8% | 11.7% | 0.1 µg/mL (≈ 0.274 µM) | –
O=c1[nH]c(=O)n([C@H]2C[C@H](O)[C@@H](CO)O2)cc1C(O)CCl (stereo partly specified) | 74% | 24.3% | 0.1 µg/mL (≈ 0.326 µM) | –
O=c1[nH]c(=O)n([C@H]2C[C@H](O)[C@@H](CO)O2)cc1C(O)CBr (stereo partly specified) | 65.5% | 23.7% | > 10 µg/mL | –
CCOC(=O)C(Br)C(O)c1cn([C@H]2C[C@H](O)[C@@H](CO)O2)c(=O)[nH]c1=O (stereo partly specified) | 49.7% | 4.9% | 1 µg/mL (≈ 2.36 µM) | 11 µg/mL (≈ 26 µM)
CCOC(=O)C(I)C(O)c1cn([C@H]2C[C@H](O)[C@@H](CO)O2)c(=O)[nH]c1=O (stereo partly specified) | 73.2% | 10.4% | 0.1 µg/mL (≈ 0.213 µM) | –
Nc1nc2c(ncn2COCCO)c(=O)[nH]1 [ACYCLOVIR] | – | – | 0.01 µg/mL (≈ 0.0444 µM) | –
N[C@@H](Cc1ccc(N(CCCl)CCCl)cc1)C(=O)O [MELPHALAN] | 2.8% | 0% | – | 0.15 µg/mL (≈ 0.491 µM)
